According to the NIST ThermoML archive (doi:10.1021/je025629r):
± gives the expanded uncertainty stated by the source.

Conditions: 298.2 K; 101.33 kPa; Liquid; vibrating tube

Compound	mass density [kg/m3]
CCCCCCCCCCCCCCCC [hexadecane]	770.3 ± 0.4
CCCCCCCC[n+]1ccn(C)c1.[Cl-] [1-methyl-3-octylimidazolium chloride]	1010.4 ± 1

Results, then the molecule that gave them:

mass density [kg/m3]	Compound
784.93 ± 0.42	CCO [ethanol]
786.27 ± 0.42	CO [methanol]
746.6 ± 0.4	CCCCCCCCCCCC [dodecane]
682.3 ± 0.4	CCCCCCC [heptane]
